Test results from publication PMC13492205, “LC–MS/MS method for the quantitation of a dual PI3K/BRD4 inhibitor SF2523 in mouse plasma: Application to plasma protein binding and metabolism studies” (Biomedical chromatography : BMC, 2023).

Columns and labels:
[1] = In vitro metabolic stability in mouse S9; conditions: for metabolic stability of positive controls: S9 and microsomes, in-house limits
Procedure: (§1) For metabolic stability samples, extractions (50 μl) were taken at each pre-determined time point and mixed with 300 μl of ice-cold methanol containing IS in a 1.5 ml centrifuge tube. Then, samples were vortexed for 2 min and centrifuged (17,950g) for 10 min. An aliquot (100 μl) of the clear supernatant was transferred into an autosampler vial and 2 μl was injected into the LC–MS/MS system.
Metabolic stability was assessed using mouse, rat and human liver microsomes, and mouse liver S9 fractions (XenoTech, LLC, Lenexa, KS, USA) were used for the in vitro assessment of phase I and II metabolism. Incubation with S9 fractions was performed in triplicate, at 2 μM SF2523 concentration as described in our previous report ([Aldhafiri et al., 2020]; [Bala et al., 2020]). The reaction was started by adding 2 μl of SF2523 at a final concentration of 2 μM. Serial samples (50 μl) were collected at selected time intervals and quenched with 300 μl of methanol spiked with 10 μl of IS (0.5 μg/ml). All of the samples were vortexed and centrifuged at 13,000g for 15 min, and the supernatant was collected and transferred to an autosampler vial and injected (2 μl) onto the LC–MS/MS system. Testosterone 7-hydroxycoumarin and diclofenac were used as positive controls to ensure that S9, microsomes and the incubation conditions were appropriate to conduct metabolism studies.
The S9 fraction and microsomal stability were expressed as the percentage of drug remaining at each time. The in vitro metabolic elimination rate constant was determined from the first-order plot of a natural logarithm of the area ratio vs. time. The slope of the linear regression equation was used to determine the elimination rate constant k (min^−1).

[2] = Plasma protein binding by rapid equilibrium dialysis; assay type: in vitro ADME, mouse; conditions: mouse plasma, mean, n = 3
Procedure: (§2) The sample contained mouse plasma spiked with 1 or 10 μM SF2523 and was added to the sample chamber. The rapid equilibrium dialysis kit top was then sealed and incubated at 37°C on an orbital shaker at 100 rpm for 5 h.
(§3) At pre-determined times, aliquots (40 μl) were removed from the sample, and buffer chambers and mixed with an equal volume of buffer or blank plasma, respectively. The samples were further processed by SPE as described above and analyzed by LC–MS/MS. The stability, equilibrium, device recovery and PPB were calculated using the following equations ([Lindup & Orme, 1981]): (5) %Remaining at5h=[…]/Concentration0h×100 (6) %Equilibrium=Concentrationreceiver cell/Concentrationdonor cell×100 (7) %Device Recovery=Concentrationreceiver cell+Concentrationdonor cell/Concentration0h×100 (8) %Bound=Concentrationdonor cell−Conentrationreceiver cell/Concentrationdonor cell×100

mouse plasma proteins = test: as above; assay type: in vitro ADME
Procedure: as §2, §3

[3] = Stability of SF2523 in mouse plasma under storage conditions; assay type: in vitro ADME; conditions: nominal 200 ng/ml, mean ± SD, n = 3, read-out: Stability recovery, Accuracy (%)
[4] = Metabolite identification in mouse S9 fraction; assay type: in vitro ADME; conditions: phase I and II, 35 min gradient LC–MS/MS
Procedure: For metabolite identification, mass shift analyses were performed using the same LC–MS/MS system. […] The parent drug MS/MS spectrum was used as a template model for structure identification and assuming that the fragmentation pattern of the parent drug from the production spectrum was used to deduce the structures of the metabolites ([Francis et al., 1999]). The data acquisition for the metabolite identification study was conducted using Labsolution software (Shimadzu Scientific Instruments, Columbia, MD, USA, version 5.8).

[5] = Blood-to-plasma ratio in mouse blood; assay type: in vitro ADME
Procedure: At different time points (0, 30 and 60 min) aliquots (50 μl) were collected for blood analysis, and an additional sample (120 μl) was transferred to a microcentrifuge tube and centrifuged at 4,000g for 10 min at 4°C to separate 50 μl plasma for analysis. The whole blood and plasma samples were further processed by SPE as described above. The analyte peak area ratios were used to calculate the blood-to-plasma (B/P) ratio using Equation (4).
(4) ∕PBration=Analyte concentration in whole blood/Analyte concentration in plasma

[6] = Stability of SF2523 in mouse plasma under storage conditions; assay type: in vitro ADME
Procedure: Stability in mouse plasma was assessed in triplicate at LQC and HQC concentrations at room temperature (6 h, 25 ± 5°C), and after three freeze–thaw cycles (−80°C) and long-term storage (60 days at −80°C). Additionally, the 24 h autosampler stability of extracted samples (at 4°C) was determined.

[7] = Gastrointestinal fluid stability (SGF, SIF, phosphate buffer); assay type: physicochemical; conditions: 37°C
Procedure: Simulated GIs were prepared according to United States Pharmacopoeia (USP) specifications. Briefly, SF2523 at 10 μM concentration was incubated with simulated gastric fluid (SGF). Simulated intestinal fluid (SIF) and phosphate buffer (100 mM, pH 7.4) were kept at 37°C in a shaking water bath, each in triplicate. Samples (100 μl) were collected at 0, 15, 30, 60 and 120 min. Immediately after sample collection, 5 vols of methanol containing IS were added and samples were prepared for analysis. Stability was determined as the percentage of parent compound detected at each time point relative to the concentration at 0 min in buffer (100%) ([Wang et al., 2015]).

[8] = In vitro metabolic stability in human liver microsomes; assay type: in vitro ADME; conditions: read-out: in vitro t1/2
Procedure: as §1
(§4) Metabolic stability was assessed using mouse, rat and human liver microsomes, and mouse liver S9 fractions (XenoTech, LLC, Lenexa, KS, USA) were used for the in vitro assessment of phase I and II metabolism. Incubation with S9 fractions was performed in triplicate, at 2 μM SF2523 concentration as described in our previous report ([Aldhafiri et al., 2020]; [Bala et al., 2020]). The reaction was started by adding 2 μl of SF2523 at a final concentration of 2 μM. Serial samples (50 μl) were collected at selected time intervals and quenched with 300 μl of methanol spiked with 10 μl of IS (0.5 μg/ml). […]
(§5) The S9 fraction and microsomal stability were expressed as the percentage of drug remaining at each time. The in vitro metabolic elimination rate constant was determined from the first-order plot of a natural logarithm of the area ratio vs. time. […]

[9] = In vitro metabolic stability in mouse liver microsomes; assay type: in vitro ADME; conditions: read-out: in vitro t1/2
Procedure: as §1, §4, §5

[10] = In vitro metabolic stability in human S9; assay type: in vitro ADME; conditions: S9 fraction; human S9, 2 μM; read-out: in vitro t1/2

## O=c1ccc2ccc(O)cc2o1 [7-hydroxycoumarin]
[1]
  metabolic stability of positive controls: within acceptable in-house limits

## O=c1cc(N2CCOCC2)oc2c(-c3ccc4c(c3)OCCO4)csc12 [SF2523]
[2]; at 1 µM, read-out: Percentage plasma protein bound (converted)
  fraction unbound at 5 h, 1 µM: 0.0418
[2]; at 10 µM, read-out: Percentage plasma protein bound (converted)
  fraction unbound at 5 h, 10 µM: 0.0327
[2]; mouse, mouse plasma in rapid equilibrium dialysis device, rapid equilibrium dialysis device, read-out: Percentage device recovery
  recovery at 5 h: > 90%
Mouse plasma proteins; mouse plasma, 37°C, 5 h incubation, mean, n = 3
  Percentage remaining at 5 h (stability): 99.06%
Mouse plasma proteins; mouse plasma, both tested concentrations
  bound to mouse plasma proteins: > 95%
Mouse plasma proteins; rapid equilibrium dialysis device, mouse plasma, mean, n = 3
  Percentage device recovery: 98.58%
[3]; mouse plasma, Bench-top stability for 8 h at (21°C, 6 h)
  recovery at 6 h, 200 ng/ml: 107 ± 4.5%
[3]; mouse plasma, Long-term stability (60 days, −80°C)
  recovery at 60 days, 200 ng/ml: 103 ± 11.2%
[3]; mouse plasma, Three freeze-thaw cycles (−80°C to room temperature)
  recovery at 200 ng/ml: 101 ± 5%
[3]; mouse, extracted plasma samples, Autosampler stability (4°C, 24 h)
  recovery at 24 h, 200 ng/ml: 101 ± 1.77%
[4]
  number of metabolites identified: Seven
[5]; At 0.1 μg/ml, time point 0 min
  B/P: 0.85
[5]; At 0.1 μg/ml, time point 30 min
  B/P: 0.98
[5]; At 0.1 μg/ml, time point 60 min
  B/P: 0.83
[5]; At 1 μg/ml, time point 0 min
  B/P: 0.85
[5]; At 1 μg/ml, time point 30 min
  B/P: 0.93
[5]; At 1 μg/ml, time point 60 min
  B/P: 0.93
[5]; whole blood, 0.1 μg/ml, overall value, read-out: blood-to-plasma ratio (B/P)
  blood plasma ratio at 0.1 μg/ml: 0.88
[5]; whole blood, 1 μg/ml, overall value, read-out: blood-to-plasma ratio (B/P)
  blood plasma ratio at 1 μg/ml: 0.9
[1]; mouse, liver S9 fraction
  half-life at 2 μM: < 2 min
[6]; mouse plasma, Bench-top stability for 8 h at (21°C, 6 h), nominal 0.3 ng/ml, mean ± SD, n = 3, read-out: Stability recovery, Accuracy (%)
  recovery at 6 h, 0.3 ng/ml: 95.8 ± 4.03%
[6]; mouse plasma, Bench-top stability for 8 h at (21°C, 6 h), nominal 375 ng/ml, mean ± SD, n = 3, read-out: Stability recovery, Accuracy (%)
  recovery at 6 h, 375 ng/ml: 111.2 ± 0.21%
[6]; mouse plasma, Long-term stability (60 days, −80°C), nominal 0.3 ng/ml, mean ± SD, n = 3, read-out: Stability recovery, Accuracy (%)
  recovery at 60 days, 0.3 ng/ml: 103 ± 2.62%
[6]; mouse plasma, Long-term stability (60 days, −80°C), nominal 375 ng/ml, mean ± SD, n = 3, read-out: Stability recovery, Accuracy (%)
  recovery at 60 days, 375 ng/ml: 97.25 ± 0.35%
[6]; mouse plasma, Three freeze-thaw cycles (−80°C to room temperature), nominal 0.3 ng/ml, mean ± SD, n = 3, read-out: Stability recovery, Accuracy (%)
  recovery at 0.3 ng/ml: 92.9 ± 12.3%
[6]; mouse plasma, Three freeze-thaw cycles (−80°C to room temperature), nominal 375 ng/ml, mean ± SD, n = 3, read-out: Stability recovery, Accuracy (%)
  recovery at 375 ng/ml: 113.7 ± 0.14%
[6]; mouse, extracted plasma samples, Autosampler stability (4°C, 24 h), nominal 0.3 ng/ml, mean ± SD, n = 3, read-out: Stability recovery, Accuracy (%)
  recovery at 24 h, 0.3 ng/ml: 105 ± 5.16%
[6]; mouse, extracted plasma samples, Autosampler stability (4°C, 24 h), nominal 375 ng/ml, mean ± SD, n = 3, read-out: Stability recovery, Accuracy (%)
  recovery at 24 h, 375 ng/ml: 103 ± 1.13%
[6]; under a variety of storage conditions
  parent drug remaining: > 90%
[7]; phosphate buffer pH 7.4, 10 μM, after 2 h
  parent remaining: > 90%
[7]; simulated gastric fluid (SGF), pH 1.2, 10 μM, after 1 h
  parent remaining: > 90%
[7]; simulated intestinal fluid (SIF), pH 6.8, 10 μM, after 2 h
  parent remaining: > 90%
[8]
  half-life at 2 μM: < 2 min
[9]
  half-life at 2 μM: < 2 min
[10]
  half-life at 2 μM: < 2 min

## O=C(O)Cc1ccccc1Nc1c(Cl)cccc1Cl [diclofenac]
[1]
  metabolic stability of positive controls: within acceptable in-house limits

## CC(C)NCC(O)COc1cccc2ccccc12 (stereo not drawn) [propranolol, reference compound]
Mouse plasma proteins; compared with limits reported in the literature (Barber et al., 1978)
  plasma protein binding of positive control drugs: within the acceptable limits

## C[C@]12CC[C@H]3[C@@H](CCC4=CC(=O)CC[C@@]43C)[C@@H]1CC[C@@H]2O [testosterone]
[1]
  metabolic stability of positive controls: within acceptable in-house limits
